These results are taken from publication PMC6792352, “Limited Chemical Structural Diversity Found to Modulate Thyroid Hormone Receptor in the Tox21 Chemical Library” (Environmental Health Perspectives, 2019).

Structures can show the parent of a compound that is named as a salt. Where two headings read alike, the source gives them in different places.

In series [1] the test system is GH3-TRE-Luc cell line. As to conditions: read-out: AC50 (uM) modified / 1000, viability, 1 nM T3 present, 24 h.
The nature of series [2]: in vitro. As to conditions: rat, gh3-tre-luc cells, AC50 (uM) modified / 1000.

In the case of `CCCCC(CC)COC(=O)c1ccc(O)cc1` (stereo not drawn) [2-Ethylhexylparaben], the CC50 in series [1] (Tox21_110001=Tox21_302793) is 41.7 µM. In addition, the CC50 at 24 h in series [2] came out at 32.1 µM.

Turning to `Cc1ccc(O)c(C(C)(C)C)c1` [2-tert-Butyl-4-methylphenol], the CC50 in series [1] (Tox21_110001=Tox21_303003) was found to be 69.9 µM. In series [2], this compound returned a CC50 at 24 h of 89.6 µM.

With `Cc1ccc(C(C)(C)C)c(O)c1` [2-tert-Butyl-5-methylphenol], in series [1] (Tox21_110001=Tox21_300486), the CC50 came out at 47.9 µM. Further, the CC50 at 24 h in series [2] turned out to be 81 µM.

Take `CC(C)(c1cc(Br)c(O)c(Br)c1)c1cc(Br)c(O)c(Br)c1` [3,3',5,5'-Tetrabromobisphenol A]: the CC50 amounted to 43.3 µM in series [1] (Tox21_110001=Tox21_201981) and 38.6 µM in series [1] (Tox21_110001=Tox21_300561). The same compound registered a CC50 at 24 h in series [2] of 39.3 µM.

In the case of `COc1cc(-c2ccc(N)c(OC)c2)ccc1N` [3,3'-Dimethoxybenzidine dihydrochloride], the CC50 in series [1] (Tox21_110001=Tox21_300315) amounted to 65 µM. Also, the CC50 at 24 h in series [2] is > 90 µM.

As to `Cc1ccc(N)c(N)c1` [3,4-Diaminotoluene], in series [1] (Tox21_110001=Tox21_300507), the CC50 was 18.4 µM. In series [2], the CC50 at 24 h is 32.1 µM.

For the compound `CC(C)CC(C)(c1ccc(O)cc1)c1ccc(O)cc1` [4,4'-(4-Methylpentane-2,2-diyl)diphenol], the CC50 in series [1] (Tox21_110001=Tox21_303608) is 34 µM. Moreover, in series [2], the CC50 at 24 h was found to be 41.6 µM.

`C1CN(SSN2CCOCC2)CCO1` [4,4'-Dithiodimorpholine]: the CC50 in series [1] (Tox21_110001=Tox21_303110) came out at 49.5 µM. For the same compound, the CC50 at 24 h in series [2] was 69.4 µM.

`CC(C)(C)CC(C)(C)c1ccc(O)cc1` [4-(1,1,3,3-Tetramethylbutyl)phenol]: in series [1] (Tox21_110001=Tox21_112084), the CC50 worked out at 22.4 µM. Moreover, in series [2], the CC50 at 24 h turned out to be 35.1 µM.

As to `c1cc(N(CC2CO2)CC2CO2)ccc1OCC1CO1` (stereo not drawn) [4-(Diglycidylamino)phenyl glycidyl ether], the CC50 in series [1] (Tox21_110001=Tox21_302646) turned out to be 25.4 µM. The compound also came in with a CC50 at 24 h in series [2] of 30.4 µM.

Consider `Nc1ccc(O)cc1` [4-Aminophenol], for which the CC50 in series [1] (Tox21_110001=Tox21_113242) is 9.32 µM; in series [1] (Tox21_110001=Tox21_201030), 17.1 µM. For the same compound, the CC50 at 24 h in series [2] turned out to be 16.6 µM.

Take `Nc1ccc(Cl)cc1N` [4-Chloro-1,2-diaminobenzene]: in series [1] (Tox21_110001=Tox21_400037), the CC50 is > 90 µM. The same compound displayed a CC50 at 24 h in series [2] of 73 µM.

For the compound `CC(C)(c1ccccc1)c1ccc(O)cc1` [4-Cumylphenol], the CC50 in series [1] (Tox21_110001=Tox21_300056) was 51 µM. Besides, the CC50 at 24 h in series [2] came to 45.2 µM.

Consider `CCCCCCc1ccc(O)cc1O` [4-Hexylresorcinol], for which the CC50 in series [1] (Tox21_110001=Tox21_300357) stood at 56.7 µM. Further, the CC50 at 24 h in series [2] is 61 µM.

For the compound `CC1=C(/C=C/C(C)=C/C=C/C(C)=C/C(=O)Nc2ccc(O)cc2)C(C)(C)CCC1` [4-Hydroxyphenyl retinamide], the CC50 in series [1] (Tox21_110001=Tox21_111007) was 6.39 µM. In series [2], this compound yielded a CC50 at 24 h of 10 µM.

Take `Nc1ccc([N+](=O)[O-])cc1N` [4-Nitro-1,2-phenylenediamine]: the CC50 in series [1] (Tox21_110001=Tox21_302811) was 26.4 µM. This compound gave a CC50 at 24 h in series [2] of 21.8 µM.

For `O=[N+]([O-])c1ccc(Nc2ccccc2)cc1` [4-Nitro-N-phenylaniline], in series [1] (Tox21_110001=Tox21_303333), the CC50 amounted to 76.1 µM. In series [2], the CC50 at 24 h is 45.4 µM.

Consider `O=Nc1ccc(Nc2ccccc2)cc1` [4-Nitrosodiphenylamine], for which the CC50 in series [1] (Tox21_110001=Tox21_302822) is 14.9 µM. This compound yielded a CC50 at 24 h in series [2] of 8.75 µM.

As for `CCCCCCCCCc1ccc(O)cc1` [4-Nonylphenol], the CC50 in series [1] (Tox21_110001=Tox21_303647) amounted to 42.8 µM. Besides, in series [2], the CC50 at 24 h was 41.5 µM.

On to `CC(C)(C)c1ccc(O)c(O)c1` [4-tert-Butylcatechol], for which, in series [1] (Tox21_110001=Tox21_400003), the CC50 came to 49.3 µM. This compound also came in with a CC50 at 24 h in series [2] of 43 µM.

Turning to `Oc1ccc2cc(SSc3ccc4cc(O)ccc4c3)ccc2c1` [6-Hydroxy-2-naphthyl disulfide], the CC50 in series [1] (Tox21_110001=Tox21_303354) turned out to be 81.2 µM. Also, in series [2], the CC50 at 24 h is > 90 µM.

As for `O=C(O[C@@H]1Cc2c(O)cc(O)cc2O[C@@H]1c1cc(O)c(O)c(O)c1)c1cc(O)c(O)c(O)c1` [(-)-Epigallocatechin gallate], in series [1] (Tox21_110001=Tox21_303457), the CC50 turned out to be 50.7 µM. The compound also had a CC50 at 24 h in series [2] of 48.4 µM.

Turning to `CCCCC/C=C/C=C/C=O` [(E,E)-2,4-Decadienal], the CC50 in series [1] (Tox21_110001=Tox21_303165) is 70.3 µM. For the same compound, the CC50 at 24 h in series [2] was > 90 µM.

Regarding `CCc1cccc(CC)c1N(COC)C(=O)CCl` [Alachlor], in series [1] (Tox21_110001=Tox21_300713), the CC50 was 78.7 µM. Moreover, the CC50 at 24 h in series [2] was > 90 µM.

Turning to `Cc1ccc(/N=C/N(C)/C=N/c2ccc(C)cc2C)c(C)c1` [Amitraz], the CC50 in series [1] (Tox21_110001=Tox21_300930) was 62.8 µM. In series [2], the CC50 at 24 h was determined as 59 µM.

In the case of `O=c1cc(-c2ccc(O)cc2)oc2cc(O)cc(O)c12` [Apigenin], in series [1] (Tox21_110001=Tox21_302884), the CC50 amounted to 77.9 µM. Also, the CC50 at 24 h in series [2] turned out to be 42.3 µM.

For `CN1CCc2cccc3c2[C@H]1Cc1ccc(O)c(O)c1-3` [Apomorphine hydrochloride hydrate], the CC50 in series [1] (Tox21_110001=Tox21_303480) worked out at 26.7 µM. This compound also yielded a CC50 at 24 h in series [2] of 48.2 µM.

With `CN(C)c1ccc(C(=N)c2ccc(N(C)C)cc2)cc1` [Auramine hydrochloride], the CC50 in series [1] (Tox21_110001=Tox21_303002) came to 57.6 µM. Besides, the CC50 at 24 h in series [2] is 63.2 µM.

As to `CC[C@H]1OC(=O)[C@H](C)[C@@H](O[C@H]2C[C@@](C)(OC)[C@@H](O)[C@H](C)O2)[C@H](C)[C@@H](O[C@@H]2O[C@H](C)C[C@H](N(C)C)[C@H]2O)[C@](C)(O)C[C@@H](C)CN(C)[C@H](C)[C@@H](O)[C@]1(C)O` [Azithromycin], in series [1] (Tox21_110001=Tox21_111008), the CC50 was determined as 35.5 µM. The same compound yielded a CC50 at 24 h in series [2] of 28.3 µM.

With `CCCCN(CC)c1c([N+](=O)[O-])cc(C(F)(F)F)cc1[N+](=O)[O-]` [Benfluralin], the CC50 in series [1] (Tox21_110001=Tox21_300774) came to 46 µM. The CC50 at 24 h in series [2] was > 90 µM.

For `CC1COc2ccccc2N1C(=O)C(Cl)Cl` (stereo not drawn) [Benoxacor], in series [1] (Tox21_110001=Tox21_303359), the CC50 came to 22.1 µM. In series [2], this compound returned a CC50 at 24 h of 11.9 µM.

For the compound `CN1[C@@H]2CC[C@H]1C[C@@H](OC(c1ccccc1)c1ccccc1)C2` [Benztropine], the CC50 in series [1] (Tox21_110001=Tox21_111695) is 13.8 µM. Also, the CC50 at 24 h in series [2] was 24.5 µM.

Consider `CCCCCCCCCCCCCCCC[N+](C)(C)Cc1ccccc1` [Benzylhexadecyldimethylammonium chloride], for which the CC50 in series [1] (Tox21_110001=Tox21_112574) amounted to 13.4 µM. In series [2], this compound gave a CC50 at 24 h of 21.5 µM.

In the case of `OC(CCN1CCCCC1)(c1ccccc1)C1CC2C=CC1C2` (stereo not drawn) [Biperiden hydrochloride], in series [1] (Tox21_110001=Tox21_113064), the CC50 was found to be 27 µM. Also, the CC50 at 24 h in series [2] is 22.6 µM.

As for `c1cc(OCC2CO2)ccc1Cc1ccc(OCC2CO2)cc1` (stereo not drawn) [Bis[4-(glycidyloxy)phenyl]methane], in series [1] (Tox21_110001=Tox21_303420), the CC50 was 48.6 µM. The CC50 at 24 h in series [2] turned out to be 42.4 µM.
